Laboratory results: patent US7928099B2, “Pyrimido [4,5-D] azepine derivatives as 5-HT2c agonists” (Pfizer Inc, priority 2007, dated 2011)

Target: T1, human recombinant 5-HT2c receptor (Homo sapiens, UniProt P28335)
T1 construct: expressed in transfected cells; host or cells: CHO K1 (Chinese hamster ovary), stably transfected
T1 sequence (P28335 33-458): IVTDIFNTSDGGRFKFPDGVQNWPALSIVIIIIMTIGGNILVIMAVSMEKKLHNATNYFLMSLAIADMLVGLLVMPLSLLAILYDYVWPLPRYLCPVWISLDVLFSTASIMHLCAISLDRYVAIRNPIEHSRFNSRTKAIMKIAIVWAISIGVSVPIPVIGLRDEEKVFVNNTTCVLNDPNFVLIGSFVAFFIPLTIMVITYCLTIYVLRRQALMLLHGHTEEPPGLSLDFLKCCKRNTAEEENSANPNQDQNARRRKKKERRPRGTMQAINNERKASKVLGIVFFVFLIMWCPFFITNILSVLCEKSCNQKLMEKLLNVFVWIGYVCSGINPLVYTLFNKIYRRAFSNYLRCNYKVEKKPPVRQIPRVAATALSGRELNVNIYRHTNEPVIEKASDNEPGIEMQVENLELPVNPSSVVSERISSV
Assay: FLIPR fluorescent Ca2+ mobilisation agonist assay in CHO K1 cells (Method 1)
Format: cell-based
Conditions: for Emax: CHO-K1, efficacy, percentage of mean maximal response to 10 μM 5-HT; for EC50: agonist affinity, FLIPR
Experimental: The compounds of the invention were evaluated for biological activity by measuring the agonist affinity (EC50) and efficacy (Emax) at the human recombinant 5-HT2c receptor expressed in CHO K1 cells, using a fluorescent based Ca^2+ mobilisation assay format compatible with FLIPR technology (Method 1). Additionally, the binding activity of a compound was determined by measuring its affinity for the human recombinant 5-HT2c receptor membranes from Swiss 3T3 cells (Method 2).
The agonist affinity of the compounds were tested by measuring their ability to induce a fluorescent based Ca^2+ mobilization signal in a FLIPR assay using CHO K1 cells expressing recombinant human 5-HT2C receptor. Both agonist affinity (EC50) and efficacy (Emax) were determined.
Chinese hamster ovary cells (CHO K1) stably transfected with the 5-HT2c receptor were cultured under standard cell culture techniques. Specifically, cells were grown at 37° C. and 5% CO2 in Dulbecco's Modified Eagle's Medium (DMEM) culture media supplemented with 10% dialysed foetal calf serum (FCS), 1% non-essential amino acids, 1 mM sodium pyruvate, 800 μg/mL geneticin and 50 μg/ml zeocin. Cells were harvested for passaging and storage using trypsin-EDTA, centrifugation and resuspension in culture medium. Cells were grown to 60-80% confluency, harvested and adjusted to 15-20×10^6 cells/ml/vial in medium/10% DMSO and stored long-term at −80° C.
Cells were seeded into black-walled clear-bottomed 384 well plates 24 h before use. Frozen cells were defrosted in a 37° C. water bath and immediately transferred into 1 mL/vial 37° C. culture medium, diluted to 10 ml and DMSO removed by centrifugation. The cells were resuspended in 15 ml/vial of cell culture medium, counted and adjusted to give 500,000 cells/mL (10,000 cells/well). […] of cell suspension was added to the 384 well plates which were then incubated overnight at 37° C.
The maximum agonist response was determined with 5-HT at a final assay concentration of 10 μM in the diluent above. The minimum response was determined with Dulbeccos PBS (+CaCl2, +MgCl2) with 0.9% DMSO and 0.05% pluronic F-127. Test compounds, maximum and minimum controls were added to a 384 well polypropylene plate.
The FLIPR calcium assay reagent was diluted with assay buffer (Hank's Balanced Salt Solution (HBSS))/20 mM HEPES and 2.5 mM probenecid (diluted with 1M Sodium hydroxide and DPBS (+CaCl2, +MgCl2)).
20 μl/well FLIPR calcium assay reagent was added to the cell plates, which were incubated for 1 h at 37° C. Cell plates and compound plates were then transferred onto the FLIPR. The assay was run using the appropriate FLIPR program, which initiates the reaction by transferring 15 μL compound into the corresponding, well of the cell plate.
The statistical parameter exported from each well was the max peak height of the response.

CC(COc1nc(Cc2ccccc2)nc2c1CCNCC2)N(C)C (stereo not shown) [Example 83, 1-[(2-benzyl-6,7,8,9-tetrahydro-5H-pyrimido-[4,5-d]azepin-4-yl)oxy]-N,N-dimethylpropan-2-amine]
Emax: 45.7% | EC50: 338 nM

CN1CCC(COc2nc(Cc3ccccc3)nc3c2CCNCC3)CC1 [Example 85, 2-benzyl-4-[(1-methyl-piperidin-4-yl)methoxy]-6,7,8,9-tetrahydro-5H-pyrimido[4,5-d]azepine]
Emax: 86.3% | EC50: 421 nM

CCN(C)c1nc2c(c(NCC(C)C)n1)CCNCC2 [Example 101, N-2-ethyl-N-4-isobutyl-N-2-methyl-6,7,8,9-tetra-hydro-5H-pyrimido[4,5-d]azepine-2,4-diamine]
Emax: 49.9% | EC50: 326 nM

CCN(C)c1nc(N2CCOCC2)nc2c1CCNCC2 [Example 95, N-ethyl-N-methyl-2-morpholin-4-yl-6,7,8,9-tetrahydro-5H-pyrimido-[4,5-d]azepin-4-amine]
Emax: 88.4% | EC50: 229 nM

c1ccc(Cc2nc3c(c(OCC4CCOCC4)n2)CCNCC3)cc1 [Example 80, 2-benzyl-4-(tetrahydro-2H-pyran-4-ylmethoxy)-6,7,8,9-tetrahydro-5H-pyrimido[4,5-d]azepine]
Emax: 74.2% | EC50: 184 nM

CCCCNc1nc(N2CCSCC2)nc2c1CCNCC2 [Example 89, N-butyl-2-thiomorpholin-4-yl-6,7,8,9-tetrahydro-5H-pyrimido[4,5-d]-azepin-4-amine]
Emax: 48.2% | EC50: 33.6 nM

c1ccc2c(c1)CCN(c1nc3c(c(N4CCSCC4)n1)CCNCC3)C2 [Example 88, 2-(3,4-dihydroisoquinolin-2(1H)-yl)-4-thiomorpholin-4-yl-6,7,8,9-tetrahydro-5H-pyrimido[4,5-d]-azepin-4-amine]
Emax: 67.6% | EC50: 838 nM

CN(Cc1ccccc1)c1nc2c(c(N3CCOCC3)n1)CCNCC2 [Example 105, N-benzyl-N-methyl-4-morpholin-4-yl-6,7,8,9-tetrahydro-5H-pyrimido-[4,5-d]azepin-2-amine]
Emax: 64.1% | EC50: 202 nM

Clc1ccc(Cc2ncc3c(n2)CCNCC3)cc1 [Example 57, 2-(4-Chlorobenzyl)-6,7,8,9-tetrahydro-5H-pyrimido[4,5-d]azepine]
Emax: 64.7% | EC50: 192 nM

c1ccc(Cc2nc3c(c(OCC4CCCO4)n2)CCNCC3)cc1 (stereo not shown) [Example 74, 2-benzyl-4-(2-tetra-hydrofuran-2-ylmethoxy)-6,7,8,9-tetrahydro-5H-pyrimido[4,5-d]azepine]
Emax: 86.7% | EC50: 17.1 nM

CC(C)COc1nc(Cc2ccccc2)nc2c1CCNCC2 [Example 76, 2-benzyl-4-isobutoxy-6,7,8,9-tetrahydro-5H-pyrimido[4,5-d]azepine]
Emax: 34% | EC50: 127 nM
